# Data taken from patent US10639284B2, “Immunomodulator compounds” (CHEMOCENTRYX, INC., priority 2016, dated 2020).
# Molecular target: human PD-L1 / Human PD-1 (Homo sapiens (Human), UniProt Q9NZQ7)
# Experiment: Enzyme-Linked Immunosorbent Assay (ELISA), PD-1/PD-L1 binding
# Conditions: Table 2; plate-coated human PD-L1, biotinylated human PD-1; read-out: ELISA IC50
# Description: Plates were coated with 1 μg/mL of human PD-L1 (obtained from R&D) in PBS overnight at 4° C. The wells were then blocked with PBS containing 2% BSA in PBS (W/V) with 0.05% TWEEN-20 for 1 hour at 37° C. The plates were washed 3 times with PBS/0.05% TWEEN-20 and the samples were diluted to 1:5 in dilution medium in the ELISA plates. Human PD-1 and biotin 0.3 μg/mL (ACRO Biosystems) were added and incubated for 1 hour at 37° C. then washed 3 times with PBS/0.05% TWEEN-20. A second block was added with PBS containing 2% BSA in PBS (W/V)/0.05% TWEEN-20 for 10 min at 37° C. and was washed 3 times with PBS/0.05% TWEEN-20. Streptavidin-HRP was added for 1 hour at 37° C. then washed 3 times with PBS/0.05% TWEEN-20. TMB substrate was added and reacted for 20 min at 37° C. A stop solution (2 N aqueous H2SO4) was added. The absorbance was read at 450 nm using a micro-plate spectrophotometer.
# Compounds in Table 2 and Table 3 were prepared by methods as described in the Examples, and evaluated according to the assay below.
# Sequence of human PD-L1 / Human PD-1 (Q9NZQ7 19-239): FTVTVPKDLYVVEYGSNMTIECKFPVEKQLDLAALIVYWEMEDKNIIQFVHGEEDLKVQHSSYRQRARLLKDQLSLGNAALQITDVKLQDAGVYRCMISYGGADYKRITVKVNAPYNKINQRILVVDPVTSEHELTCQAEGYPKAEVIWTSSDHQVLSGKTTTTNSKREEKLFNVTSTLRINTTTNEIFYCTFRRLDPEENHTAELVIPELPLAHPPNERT
row,Compound,IC50 [nM]
1,COc1cc(O[C@H]2CCc3c(-c4ccccc4)cccc32)c(Cl)cc1CN[C@@H](CO)C(=O)O [Example 2.007],100 to 500
2,COc1ccc(-c2cccc3c2CC[C@@H]3Oc2cc(OCc3cncc(C#N)c3)c(CN[C@@H](CO)C(=O)O)cc2Cl)cc1C [Example 2.023],100 to 500
3,COc1cccc(-c2cccc3c2CC[C@@H]3Oc2cc(OCc3cncc(C#N)c3)c(CN[C@@H](CO)C(=O)O)cc2Cl)c1 [Example 2.015],< 100
4,CN(C)Cc1cc(Cl)c(O[C@H]2CCc3c(-c4ccccc4F)cccc32)cc1OCc1cncc(C#N)c1 [Example 2.031],< 100
5,COc1cc(O[C@H]2CCc3c(-c4cccc(OC)c4F)cccc32)c(Cl)cc1CN1CC(O)C1 [Example 2.041],500 to 20000
6,C[C@@H](O)[C@@H](NCc1cc(Cl)c(O[C@H]2CCc3c(-c4ccccc4F)cccc32)cc1OCc1cncc(C#N)c1)C(=O)O [Example 2.129],< 100
7,COc1cccc(-c2cccc3c2CC[C@@H]3Oc2cc(OCc3cncc(C#N)c3)c(CN3CC(O)C3)cc2Cl)c1Cl [Example 2.072],100 to 500
8,COc1cccc(-c2cccc3c2CC[C@@H]3Oc2cc(OCc3cncc(C#N)c3)c(CN3CCC(CO)CC3)cc2Cl)c1Cl [Example 2.081],100 to 500
9,N#Cc1cncc(COc2cc(O[C@H]3CCc4c(-c5ccccc5F)cccc43)c(Cl)cc2CN[C@H](C(=O)O)c2ccccc2)c1 [Example 2.178],100 to 500
10,N#Cc1cncc(COc2cc(O[C@H]3CCc4c(-c5ccccc5F)cccc43)c(Cl)cc2CN2CCC(O)CC2)c1 [Example 2.029],< 100
11,N#Cc1cncc(COc2cc(O[C@H]3CCc4c(-c5ccccc5F)cccc43)c(Cl)cc2CN2CC[C@@H](O)C2)c1 [Example 2.019],< 100
12,COc1cccc(-c2cccc3c2CC[C@@H]3Oc2cc(OCc3cncc(C#N)c3)c(CN[C@@H](CO)C(=O)O)cc2Cl)c1Cl [Example 2.043],< 100
13,COc1cccc(F)c1-c1cccc2c1CC[C@@H]2Oc1cc(OCc2cncc(C#N)c2)c(CN[C@@H](CO)C(=O)O)cc1Cl [Example 2.105],100 to 500
14,COc1cc(O[C@H]2CCc3c(-c4ccc5c(c4)OCCO5)cccc32)c(Cl)cc1CN1CC(O)C1 [Example 2.042],500 to 20000
15,C[C@@H](O)[C@H](NCc1cc(Cl)c(O[C@H]2CCc3c(-c4ccccc4F)cccc32)cc1-c1cncc(C#N)c1)C(=O)O [Example 2.126],100 to 500
16,Cc1cccc(-c2cccc3c2CC[C@@H]3Oc2cc(OCc3cncc(C#N)c3)c(CN3CC(O)C3)cc2Cl)c1F [Example 2.076],100 to 500
17,N#Cc1cncc(COc2cc(O[C@H]3CCc4c(-c5ccccc5)cccc43)c(Cl)cc2CNCC2CCC(=O)N2)c1 (some centres unmarked) [Example 1.014],100 to 500

row,Compound,IC50 [nM]
1,N#Cc1cncc(COc2cc(OC3CCc4c(-c5ccccc5)cccc43)c(Cl)cc2CN2CCC2)c1 (centres unmarked) [Example 1.006],100 to 500
2,N#Cc1cncc(COc2cc(OC3CCc4c(-c5ccccc5)cccc43)c(Cl)cc2CNCc2nnn[nH]2)c1 (centres unmarked) [Example 1.003],< 100
3,COc1cccc(-c2cccc3c2CC[C@@H]3Oc2cc(OCc3cncc(C#N)c3)c(CN3CCOCC3)cc2Cl)c1Cl [Example 2.082],500 to 20000
4,N#Cc1cncc(COc2cc(O[C@H]3CCc4c(-c5ccc(F)cc5)cccc43)c(Cl)cc2CN[C@@H](CO)C(=O)O)c1 [Example 2.008],100 to 500
5,O=C(O)[C@H](CO)NCc1cc(Cl)c(OC2CCc3c(-c4ccccc4)cccc32)cc1OCc1cccnc1 (some centres unmarked) [Example 1.011],500 to 20000
6,N#Cc1cncc(COc2cc(O[C@H]3CCc4c(-c5ccccc5F)cccc43)c(Cl)cc2CN2CCC(F)CC2)c1 [Example 2.093],500 to 20000
7,COc1cc(O[C@H]2CCc3c(-c4ccc5c(c4)OCCO5)cccc32)c(Cl)cc1CN[C@@H](CO)C(=O)O [Example 2.039],< 100
8,COc1cccc(-c2cccc3c2CC[C@@H]3Oc2cc(OCc3cncc(C#N)c3)c(CN[C@H](C(=O)O)[C@@H](C)O)cc2Cl)c1F [Example 2.106],< 100
9,Cc1ccccc1-c1cccc2c1CC[C@@H]2Oc1cc(OCc2cncc(C#N)c2)c(CN[C@@H](CO)C(=O)O)cc1Cl [Example 2.006],< 100
10,COc1ccc(F)c(-c2cccc3c2CC[C@@H]3Oc2cc(OCc3cncc(C#N)c3)c(CN3CCC(O)CC3)cc2Cl)c1 [Example 2.079],100 to 500
11,COc1cccc(-c2cccc3c2CC[C@@H]3Oc2cc(OCc3cncc(C#N)c3)c(CNCc3n[nH]c(=O)[nH]3)cc2Cl)c1F [Example 2.053],100 to 500
12,N#Cc1cncc(COc2cc(O[C@H]3CCc4c(-c5ccccc5F)cccc43)c(Cl)cc2CN[C@H](CO)C(=O)O)c1 [Example 2.102],< 100
13,COc1cccc(-c2cccc3c2CCC3CCOc2cc(OCc3cncc(C#N)c3)c(CN[C@@H](CO)C(=O)O)cc2Cl)c1F (some centres unmarked) [Example 2.085],500 to 20000
14,COc1cccc(-c2cccc3c2CCC3CCOc2cc(OCc3cncc(C#N)c3)c(CN3CC(O)C3)cc2Cl)c1F (centres unmarked) [Example 2.088],500 to 20000
15,CCOc1cc(O[C@H]2CCc3c(-c4ccccc4F)cccc32)c(Cl)cc1CN[C@H](CO)C(=O)O [Example 2.155],100 to 500
16,COc1cccc(-c2cccc3c2CC[C@@H]3Oc2cc(OCc3cncc(C#N)c3)c(CNCc3noc(=O)[nH]3)cc2Cl)c1F [Example 2.054],500 to 20000
17,COc1cccc(-c2cccc3c2CC(C)C3Oc2cc(OCc3cncc(C#N)c3)c(CN[C@@H](CO)C(=O)O)cc2Cl)c1F (some centres unmarked) [Example 2.049],500 to 20000

# Same assay, conditions: Table 3; plate-coated human PD-L1, biotinylated human PD-1; read-out: ELISA IC50
row,Compound,IC50 [nM]
1,CC(O)C(NCc1cc(Cl)c(O[C@H]2CCc3c(-c4ccccc4F)cccc32)cc1OCc1cncc(C#N)c1)c1nnn[nH]1 (some centres unmarked) [Example 3.134],< 100
2,CC(C)OC(=O)[C@H](CO)NCc1cc(Cl)c(O[C@H]2CCc3c(-c4ccc5c(c4F)OCCO5)cccc32)cc1OCc1cncc(C#N)c1 [Example 3.046],500 to 20000
3,C[C@@H](O)[C@H](NCc1cc(Cl)c(O[C@H]2CCc3c(-c4ccc5c(c4F)OCCO5)cccc32)cc1OCc1cncc(C#N)c1)C(=O)O [Example 3.053],< 100
4,CC(NCc1cc(Cl)c(O[C@H]2CCc3c(-c4ccccc4F)cccc32)cc1OCc1cncc(C#N)c1)C(=O)c1ccc(O)c(O)c1 (some centres unmarked) [Example 3.076],100 to 500
5,N#Cc1cncc(COc2cc(O[C@H]3CCc4c(-c5ccccc5F)cccc43)c(Cl)cc2CN[C@H]2CCC[C@@H]2O)c1 [Example 3.019],< 100
6,C[C@H](NCc1cc(Cl)c(O[C@H]2CCc3c(-c4ccccc4F)cccc32)cc1OCc1cncc(C#N)c1)C(=O)N[C@@H](CO)C(=O)O [Example 3.047],< 100
7,C[C@H](NCc1cc(Cl)c(O[C@H]2CCc3c(-c4ccccc4F)cccc32)cc1OCc1cncc(C#N)c1)C(=O)NCC(=O)O [Example 3.058],100 to 500
8,N#Cc1cncc(COc2cc(O[C@H]3CCc4c(-c5ccccc5F)cccc43)c(Cl)cc2CNc2cncc(CO)c2)c1 [Example 3.097],500 to 20000
9,N#Cc1cncc(COc2cc(O[C@H]3CCc4c(-c5ccccc5F)cccc43)c(Cl)cc2CN[C@@H](CO)C(=O)NCC(=O)NCC(=O)O)c1 [Example 3.043],< 100
10,N#Cc1cncc(COc2cc(O[C@H]3CCc4c(-c5ccc6c(c5)OC(F)(F)O6)cccc43)c(Cl)cc2CN[C@@H](CO)C(=O)O)c1 [Example 3.107],500 to 20000
11,O=C(O)c1cncc(COc2cc(O[C@H]3CCc4c(-c5ccccc5F)cccc43)c(Cl)cc2CN[C@@H](CO)C(=O)O)c1 [Example 3.029],100 to 500
12,Cn1cnc(CNCc2cc(Cl)c(O[C@H]3CCc4c(-c5ccccc5F)cccc43)cc2OCc2cncc(C#N)c2)c1 [Example 3.091],< 100
13,COc1cccc(-c2cccc3c2CC[C@@H]3Oc2cc(OCc3cc(C#N)cc(C#N)c3)c(CN[C@@H](CO)C(=O)O)cc2Cl)c1Cl [Example 3.016],< 100
14,N#Cc1cncc(COc2cc(O[C@H]3CCc4c(-c5ccccc5F)cccc43)c(Cl)cc2CNCCCCN(CCO)CCO)c1 [Example 3.088],100 to 500
15,N#Cc1cncc(COc2cc(O[C@H]3CCc4c(-c5ccccc5F)cccc43)c(Cl)cc2CNCc2cccnn2)c1 [Example 3.084],< 100
16,CC(N[C@@H](CO)C(=O)O)c1cc(Cl)c(O[C@H]2CCc3c(-c4cccc5c4OCCO5)cccc32)cc1OCc1cncc(C#N)c1 (some centres unmarked) [Example 3.113],500 to 20000
17,N#Cc1cncc(COc2cc(O[C@H]3CCc4c(-c5cc6c(cc5F)OCCO6)cccc43)c(Cl)cc2CN[C@H](O)CO)c1 [Example 3.007],< 100
18,N#Cc1cncc(COc2cc(O[C@H]3CCc4c(-c5cc(F)c6c(c5)OCCO6)cccc43)c(Cl)cc2CN[C@@H](CO)C(=O)O)c1 [Example 3.017],< 100
19,N#Cc1cncc(COc2cc(O[C@H]3CCc4c(-c5ccccc5F)cccc43)c(Cl)cc2CN[C@H](CCCNC(=N)N)C(=O)O)c1 [Example 3.098],100 to 500
20,O=C(O)[C@H](CO)NCc1cc(Cl)c(O[C@H]2CCc3c(-c4ccc5c(c4F)OCCO5)cccc32)cc1OCc1cc(F)cc(F)c1 [Example 3.012],500 to 20000
21,N#Cc1cncc(COc2cc(O[C@H]3CCc4c(-c5cccc(O)c5)cccc43)c(Cl)cc2CN[C@@H](CO)C(=O)O)c1 [Example 3.118],< 100
22,N#Cc1cncc(COc2cc(O[C@H]3CCc4c(-c5ccccc5F)cccc43)c(Cl)cc2CNC(CO)CO)c1 [Example 3.129],< 100
